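Interpolation was linear, between the two tested concentrations surrounding the appropriate level; five concentrations were tested over 48 hours in 96-well plates. Definition used: TGI = concentration required for complete inhibition of growth.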
Assays:
Test in all cases: NCI-60 cell line screen, 48 h
MDA-MB-231 breast = system: MDA-MB-231 breast
SN12C renal = system: SN12C renal
A498 renal = system: A498 renal
OVCAR-5 ovarian = system: OVCAR-5 ovarian
SK-MEL-28 melanoma = system: SK-MEL-28 melanoma
T-47D breast = system: T-47D breast
SF-539 CNS = system: SF-539 CNS
MDA-MB-435 = system: MDA-MB-435
MCF7 breast = system: MCF7 breast
K-562 leukemia = system: K-562 leukemia
HS 578T breast = system: HS 578T breast
EKVX NSCLC = system: EKVX NSCLC
M14 melanoma = system: M14 melanoma
HT29 colon = system: HT29 colon
SNB-19 CNS = system: SNB-19 CNS
IGROV1 ovarian = system: IGROV1 ovarian
OVCAR-3 ovarian = system: OVCAR-3 ovarian
UACC-62 melanoma = system: UACC-62 melanoma
MOLT-4 leukemia = system: MOLT-4 leukemia
NCI-H460 lung = system: NCI-H460 lung
MDA-N = system: MDA-N
SF-268 CNS = system: SF-268 CNS
UO-31 renal = system: UO-31 renal
786-0 renal = system: 786-0 renal
HCT-15 colon = system: HCT-15 colon
A549 NSCLC = system: A549 NSCLC
SF-295 CNS = system: SF-295 CNS
OVCAR-8 ovarian = system: OVCAR-8 ovarian
DU-145 prostate = system: DU-145 prostate
RPMI-8226 leukemia = system: RPMI-8226 leukemia
ACHN renal = system: ACHN renal
TK-10 renal = system: TK-10 renal
SW-620 colon = system: SW-620 colon
NCI/ADR-RES ovarian = system: NCI/ADR-RES ovarian
HOP-92 NSCLC = system: HOP-92 NSCLC
HCT-116 colon = system: HCT-116 colon
NCI-H522 lung = system: NCI-H522 lung
NCI-H226 lung = system: NCI-H226 lung
KM12 colon = system: KM12 colon
LOX IMVI melanoma = system: LOX IMVI melanoma
SR leukemia = system: SR leukemia
UACC-257 melanoma = system: UACC-257 melanoma
SK-OV-3 ovarian = system: SK-OV-3 ovarian
SNB-75 CNS = system: SNB-75 CNS
SK-MEL-2 melanoma = system: SK-MEL-2 melanoma
PC-3 prostate = system: PC-3 prostate
HOP-62 NSCLC = system: HOP-62 NSCLC
U251 CNS = system: U251 CNS
SK-MEL-5 melanoma = system: SK-MEL-5 melanoma
HCC-2998 colon = system: HCC-2998 colon
CAKI-1 renal = system: CAKI-1 renal
MALME-3M melanoma = system: MALME-3M melanoma
COLO 205 colon = system: COLO 205 colon
OVCAR-4 ovarian = system: OVCAR-4 ovarian
CCRF-CEM leukemia = system: CCRF-CEM leukemia
HL-60(TB) leukemia = system: HL-60(TB) leukemia
NCI-H23 lung = system: NCI-H23 lung

CNc1cc(N)ccc1C(=O)N1CCC[C@H]1CO
TGI (MDA-MB-231 breast): > 100 µM | TGI (SN12C renal): > 100 µM | TGI (A498 renal): > 100 µM | TGI (OVCAR-5 ovarian): > 100 µM | TGI (SK-MEL-28 melanoma): > 100 µM | TGI (T-47D breast): > 100 µM | TGI (SF-539 CNS): > 100 µM | TGI (MDA-MB-435): > 100 µM | TGI (MCF7 breast): > 100 µM | TGI (K-562 leukemia): > 100 µM | TGI (HS 578T breast): > 100 µM | TGI (EKVX NSCLC): > 100 µM | TGI (M14 melanoma): > 100 µM | TGI (HT29 colon): > 100 µM | TGI (SNB-19 CNS): > 100 µM | TGI (IGROV1 ovarian): > 100 µM | TGI (OVCAR-3 ovarian): > 100 µM | TGI (UACC-62 melanoma): > 100 µM | TGI (MOLT-4 leukemia): > 100 µM | TGI (NCI-H460 lung): > 100 µM | TGI (MDA-N): > 100 µM | TGI (SF-268 CNS): > 100 µM | TGI (UO-31 renal): > 100 µM | TGI (786-0 renal): > 100 µM | TGI (HCT-15 colon): > 100 µM | TGI (A549 NSCLC): > 100 µM | TGI (SF-295 CNS): > 100 µM | TGI (OVCAR-8 ovarian): > 100 µM | TGI (DU-145 prostate): > 100 µM | TGI (RPMI-8226 leukemia): > 100 µM | TGI (ACHN renal): > 100 µM | TGI (TK-10 renal): > 100 µM | TGI (SW-620 colon): > 100 µM | TGI (NCI/ADR-RES ovarian): > 100 µM | TGI (HOP-92 NSCLC): > 100 µM | TGI (HCT-116 colon): > 100 µM | TGI (NCI-H522 lung): > 100 µM | TGI (NCI-H226 lung): > 100 µM | TGI (KM12 colon): > 100 µM | TGI (LOX IMVI melanoma): > 100 µM | TGI (SR leukemia): > 100 µM | TGI (UACC-257 melanoma): > 100 µM | TGI (SK-OV-3 ovarian): > 100 µM | TGI (SNB-75 CNS): > 100 µM | TGI (SK-MEL-2 melanoma): > 100 µM | TGI (PC-3 prostate): > 100 µM | TGI (HOP-62 NSCLC): > 100 µM | TGI (U251 CNS): > 100 µM

CO[C@]12CC(=O)C3(C(C[C@H]4CC5CCC6=CC(=O)CC[C@]6(OC(C)=O)C5C[C@@]43C)C1)C1C[C@H]3[C@@H]4CCC5=CC(=O)CC[C@]5(OC(C)=O)[C@H]4CC[C@]3(C)C12 (stereo partly drawn)
TGI (SK-MEL-5 melanoma): > 100 µM | TGI (MDA-MB-231 breast): 74.7 µM | TGI (SN12C renal): > 100 µM | TGI (A498 renal): > 100 µM | TGI (OVCAR-5 ovarian): > 100 µM | TGI (SK-MEL-28 melanoma): > 100 µM | TGI (T-47D breast): > 100 µM | TGI (SF-539 CNS): > 100 µM | TGI (MDA-MB-435): > 100 µM | TGI (MCF7 breast): > 100 µM | TGI (K-562 leukemia): > 100 µM | TGI (HCC-2998 colon): > 100 µM | TGI (HS 578T breast): > 100 µM | TGI (EKVX NSCLC): > 100 µM | TGI (CAKI-1 renal): > 100 µM | TGI (M14 melanoma): > 100 µM | TGI (HT29 colon): > 100 µM | TGI (SNB-19 CNS): > 100 µM | TGI (MALME-3M melanoma): > 100 µM | TGI (IGROV1 ovarian): > 100 µM | TGI (OVCAR-3 ovarian): > 100 µM | TGI (UACC-62 melanoma): > 100 µM | TGI (MOLT-4 leukemia): > 100 µM | TGI (NCI-H460 lung): > 100 µM | TGI (COLO 205 colon): 56.7 µM | TGI (MDA-N): > 100 µM | TGI (SF-268 CNS): > 100 µM | TGI (UO-31 renal): > 100 µM | TGI (OVCAR-4 ovarian): > 100 µM | TGI (786-0 renal): > 100 µM | TGI (HCT-15 colon): > 100 µM | TGI (CCRF-CEM leukemia): > 100 µM | TGI (A549 NSCLC): > 100 µM | TGI (SF-295 CNS): > 100 µM | TGI (OVCAR-8 ovarian): > 100 µM | TGI (DU-145 prostate): > 100 µM | TGI (RPMI-8226 leukemia): > 100 µM | TGI (ACHN renal): > 100 µM | TGI (TK-10 renal): > 100 µM | TGI (HL-60(TB) leukemia): > 100 µM | TGI (SW-620 colon): > 100 µM | TGI (NCI/ADR-RES ovarian): > 100 µM | TGI (NCI-H23 lung): > 100 µM | TGI (HOP-92 NSCLC): > 100 µM | TGI (HCT-116 colon): > 100 µM | TGI (NCI-H522 lung): > 100 µM | TGI (LOX IMVI melanoma): > 100 µM | TGI (SR leukemia): > 100 µM | TGI (UACC-257 melanoma): > 100 µM | TGI (SK-OV-3 ovarian): > 100 µM | TGI (SNB-75 CNS): > 100 µM | TGI (SK-MEL-2 melanoma): > 100 µM | TGI (PC-3 prostate): > 100 µM | TGI (HOP-62 NSCLC): > 100 µM | TGI (U251 CNS): > 100 µM

— PubChem BioAssay (NCI)
